Values quoted from earlier work in patent publication US20230372318A1, “METHODS FOR TREATING A SUBJECT HAVING MULTIPLE SYSTEM ATROPHY” (Theravance Biopharma R&D IP, LLC, priority 2022, published 2023).
Read-outs that look alike come from different tables or passages of the source.

Key:
[1] = system: adult patients with symptomatic nOH; details: prescribing information, black box warning; cited from earlier work
[2] = system: patients with central autonomic failure; details: cited from earlier work
[3] = system: nOH in MSA patients and non-MSA patients; details: cited from earlier work

SMILES | Main side effect [1] | Effect on blood pressure [2] | Effect against nOH ([3]; MSA patients) | Effect against nOH ([3]; non-MSA patients)
N[C@H](C(=O)O)[C@H](O)c1ccc(O)c(O)c1 [droxidopa, L-threo-3-4-dihydroxyphenylserine] | supine hypertension | – | – | –
CNCC[C@@H](Oc1ccccc1C)c1ccccc1 [Atomoxetine] | – | increase blood pressure | ineffective | showing improvement
